Assay results taken from US20240336602A1 (Katholieke Universiteit Leuven, priority 2020, published 2024).

Target: T1, mouse TRPM3a2 (mTRPM3) ion channel (Mus musculus, UniProt J9SQF3)
T1 construct: expressed in transfected cells; host or cells: flip-in HEK293
Test: TRPM3 ion channel driven Ca2+ uptake, Fluo-4 AM assay (PS-stimulated, overexpressing flip-in HEK293 cells)
Type: cell-based
Protocol: In order to monitor the inhibition of the mouse TRPM3a2 (mTRPM3) ion channel by the compounds of the invention, a cellular system making use of an mTRPM3alpha2 or hTRPM3 overexpressing cell line (flip-in HEK293) was used. The TRPM3 channel was stimulated/opened with Pregnenolone sulfate (PS) (50 μM) which results in Ca^2+ influx.
For mTRPM3, the intracellular Ca^2+ was measured with a Calcium responsive dye, Fluor-4 AM ester (Invitrogen). Cells were cultured until a confluence of 80-90%, washed with Versene (Invitrogen) and detached from the surface by a short incubation with 0.05% Trypsin (Invitrogen). The trypsination process was stopped by the addition of complete cell culture medium (DMEM, glutamax, 10% FCS, NEAA, Pen-Strep). Cells were collected and resuspended in Krebs buffer without Calcium at RT.
Prior the cell seeding (±2000 cells/well into a black, 384 well plate (Greiner)) the diluted compound was added in the assay plate, together with the PS dissolved in Krebs buffer containing Calcium. […] Directly after cell addition the plates were read on an Envision fluorescence reader (Perkin Elmer) by an Excitation of 485 nm and emission at 535 nm.
Channel inhibition was calculated compared to a non-PS stimulated control versus a condition stimulated with PS (50 μM) with vehicle. The ability of the compounds of the invention to inhibit this activity was determined as: Percentage inhibition=[1-((RFU determined for sample with test compound present—RFU determined for sample with positive control inhibitor) divided by (RFU determined in the presence of vehicle—RFU determined for sample with positive control inhibitor))]*100.

[1] = PS (50 μM) stimulated, cpd 001-199
[2] = PS (50 μM) stimulated Ca2+ influx, HEK293, cpds 300-399
[3] = PS (50 μM) stimulated, cpds. 400-499

T1 sequence (J9SQF3 1-1709 isoform J9SQF3-12): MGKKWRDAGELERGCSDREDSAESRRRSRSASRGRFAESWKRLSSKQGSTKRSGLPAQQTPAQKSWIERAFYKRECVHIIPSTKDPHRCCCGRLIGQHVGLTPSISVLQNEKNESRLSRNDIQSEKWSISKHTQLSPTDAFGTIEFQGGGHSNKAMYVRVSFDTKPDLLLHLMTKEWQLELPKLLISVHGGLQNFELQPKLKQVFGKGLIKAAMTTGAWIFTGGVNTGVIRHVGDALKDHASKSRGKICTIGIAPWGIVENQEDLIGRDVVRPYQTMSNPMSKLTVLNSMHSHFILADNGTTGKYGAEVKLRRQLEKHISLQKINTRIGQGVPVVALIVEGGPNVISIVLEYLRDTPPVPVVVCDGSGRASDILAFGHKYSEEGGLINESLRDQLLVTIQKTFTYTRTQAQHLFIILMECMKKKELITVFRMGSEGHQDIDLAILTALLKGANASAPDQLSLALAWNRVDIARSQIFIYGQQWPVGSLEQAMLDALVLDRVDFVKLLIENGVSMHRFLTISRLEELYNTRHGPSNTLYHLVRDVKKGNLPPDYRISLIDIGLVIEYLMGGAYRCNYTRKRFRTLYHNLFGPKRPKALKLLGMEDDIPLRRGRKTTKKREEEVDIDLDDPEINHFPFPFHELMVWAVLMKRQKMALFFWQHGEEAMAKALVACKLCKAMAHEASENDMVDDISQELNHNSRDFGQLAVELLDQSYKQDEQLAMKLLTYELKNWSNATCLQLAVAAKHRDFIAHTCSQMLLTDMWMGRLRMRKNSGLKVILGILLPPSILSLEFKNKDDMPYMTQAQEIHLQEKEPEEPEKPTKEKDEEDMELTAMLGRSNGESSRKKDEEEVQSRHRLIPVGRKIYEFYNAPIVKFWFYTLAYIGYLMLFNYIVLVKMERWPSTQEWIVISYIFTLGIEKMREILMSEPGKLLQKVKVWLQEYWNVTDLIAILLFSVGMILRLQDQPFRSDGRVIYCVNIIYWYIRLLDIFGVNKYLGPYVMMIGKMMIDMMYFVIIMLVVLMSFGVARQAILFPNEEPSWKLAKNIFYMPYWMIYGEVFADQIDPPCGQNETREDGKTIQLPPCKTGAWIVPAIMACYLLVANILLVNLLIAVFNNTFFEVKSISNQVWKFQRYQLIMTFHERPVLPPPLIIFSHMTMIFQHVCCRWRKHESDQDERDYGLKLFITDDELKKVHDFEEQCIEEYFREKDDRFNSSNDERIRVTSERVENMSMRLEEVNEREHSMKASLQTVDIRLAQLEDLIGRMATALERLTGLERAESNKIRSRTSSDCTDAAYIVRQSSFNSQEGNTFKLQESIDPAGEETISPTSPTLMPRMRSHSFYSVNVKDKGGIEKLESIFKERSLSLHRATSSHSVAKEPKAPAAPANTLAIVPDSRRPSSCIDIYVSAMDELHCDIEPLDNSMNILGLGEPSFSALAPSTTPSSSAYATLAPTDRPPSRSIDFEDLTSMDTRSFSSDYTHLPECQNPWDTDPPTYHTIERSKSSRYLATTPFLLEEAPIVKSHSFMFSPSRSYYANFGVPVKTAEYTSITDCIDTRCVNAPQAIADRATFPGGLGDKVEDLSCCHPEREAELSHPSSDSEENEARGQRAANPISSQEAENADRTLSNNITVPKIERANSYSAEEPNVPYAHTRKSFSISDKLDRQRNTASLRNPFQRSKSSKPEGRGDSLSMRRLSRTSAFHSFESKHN

| IC50 [1] [nM] | IC50 [2] [nM] | Structure (SMILES) | other results |
| --- | --- | --- | --- |
| – | ≤ 1000 | Cc1oc2ccc(OCc3c(F)cnn3C)cc2c1C(=O)NC1(CO)CCCNC1=O (single isomer, unassigned) [355 - En 1] | – |
| – | ≤ 1000 | Cc1oc2ccc(OCc3c(F)cnn3C)cc2c1C(=O)NC1(CO)CCNC1=O (single isomer, unassigned) [356 - En 1] | – |
| – | ≤ 1000 | Cc1ncsc1COc1cc2c(C(=O)NC3CCN(CCO)C3=O)c(C)oc2cc1F (single isomer, unassigned) [360 - En 1] | – |
| – | ≥ 20000 | Cc1ncsc1COc1cc(F)c2oc(C)c(C(=O)NC3CCN(CCO)C3=O)c2c1 (single isomer, unassigned) [365 - En 1] | – |
| – | ≤ 1000 | Cc1ncc(COc2ccc3oc(C)c(C(=O)NC4COCC4O)c3c2)s1 (single isomer, unassigned) [386 - En 1] | – |
| – | 1000 to 20000 | Cc1ncc(COc2ccc3oc(C)c(C(=O)NC4COCC4O)c3c2)s1 (single isomer, unassigned) [386 - En 2] | – |
| – | ≤ 1000 | Cc1oc2ccc(OCc3ccccn3)cc2c1C(=O)NC1COCC1O (single isomer, unassigned) [387 - En 1] | – |
| – | ≤ 1000 | Cc1ncc(COc2ccc3oc(C)c(C(=O)NC4COCC4O)c3c2)s1 (single isomer, unassigned) [388 - En 1] | – |
| – | 1000 to 20000 | Cc1ncc(COc2ccc3oc(C)c(C(=O)NC4COCC4O)c3c2)s1 (single isomer, unassigned) [388 - En 2] | – |
| – | ≤ 1000 | Cc1ncc(C(C)Oc2ccc3oc(C)c(C(=O)NC(CO)C(N)=O)c3c2)s1 (single isomer, unassigned) [395 - Dia 1] | – |
| – | ≤ 1000 | Cc1ncsc1COc1ccc2oc(C)c(C(=O)NC(C)C(=O)N(C)CCO)c2c1 (single isomer, unassigned) [396 - En 1] | – |
| – | ≤ 1000 | Cc1ncsc1COc1ccc2oc(C)c(C(=O)NC(C)C(=O)NCCO)c2c1 (single isomer, unassigned) [397 - En 1] | – |

The next lines start with the compound.

| Structure (SMILES) | IC50 [1] [nM] | IC50 [2] [nM] | other results |
| --- | --- | --- | --- |
| Cc1oc2ccc(OCc3cccnc3C(F)(F)F)cc2c1C(=O)O | 1000 to 20000 | – | – |
| Cc1ncsc1COc1ccc2oc(C)c(C(=O)NC3CCN(C)CC3(F)F)c2c1 (single isomer, unassigned) [110 - En 1] | ≤ 1000 | – | – |
| Cc1ncsc1COc1ccc2oc(C)c(C(=O)NC3CN(C)CCC3(F)F)c2c1 (single isomer, unassigned) [118 - En 1] | ≤ 1000 | – | – |
| Cc1ncsc1COc1ccc2oc(C)c(C(=O)NC3CN(C)CC3(F)F)c2c1 (single isomer, unassigned) [123 - En 1] | ≤ 1000 | – | – |
| Cc1oc2ccc(OCc3cccnc3C(F)(F)F)cc2c1C(=O)NC1(CCO)CCOC1 (single isomer, unassigned) [126 - En 1] | ≤ 1000 | – | – |
| Cc1oc2ccc(OCc3cccnc3C(F)(F)F)cc2c1C(=O)NC1CCN(C)CC1(F)F (single isomer, unassigned) [130 - En 1] | ≤ 1000 | – | – |
| Cc1oc2ccc(OCc3cccnc3C(F)(F)F)cc2c1C(=O)NC1CN(C)CCC1(F)F (single isomer, unassigned) [131 - En 1] | ≤ 1000 | – | – |
| Cc1oc2ccc(OCc3cccnc3C(F)(F)F)cc2c1C(=O)NC1CN(CCO)CC1(F)F (single isomer, unassigned) [134 - En 1] | 1000 to 20000 | – | – |
| Cc1oc2ccc(OCc3cccnc3C(F)(F)F)cc2c1C(=O)NC1CN(CCO)CC1(F)F (single isomer, unassigned) [134 - En 2] | ≤ 1000 | – | – |
| Cc1oc2ccc(OCc3cccnc3C(F)(F)F)cc2c1C(=O)NC1CN(C)CC(F)(F)C1 (single isomer, unassigned) [141 - En 1] | ≤ 1000 | – | – |
| Cc1ncsc1COc1ccc2oc(C)c(C(=O)NC3CN(CCO)CC3(F)F)c2c1 (single isomer, unassigned) [151 - En 1] | ≤ 1000 | – | – |
| Cc1ncsc1COc1ccc2oc(C)c(C(=O)NC3CN(CC(F)(F)F)CC3(F)F)c2c1 (single isomer, unassigned) [155 - En 1, N-(4,4-difluoro-1-(2,2,2-trifluoroethyl)pyrrolidin-3-yl)-2-methyl-5-((4-methylthiazol-5-yl)me-thoxy)benzofuran-3-carboxamide] | ≤ 1000 | – | – |
| Cc1ncsc1COc1ccc2oc(C)c(C(=O)NC3CN(CC(F)(F)F)CC3(F)F)c2c1 (single isomer, unassigned) [155 - En 2, N-(4,4-difluoro-1-(2,2,2-trifluoroethyl)pyrrolidin-3-yl)-2-methyl-5-((4-methylthiazol-5-yl)me-thoxy)benzofuran-3-carboxamide] | ≤ 1000 | – | – |
| Cc1ncsc1COc1ccc2oc(C)c(C(=O)NC3CN(C)CC(F)(F)C3)c2c1 (single isomer, unassigned) [163 - En 1] | ≤ 1000 | – | – |
| Cc1oc2cc(Cl)c(OCc3cccnc3C(F)(F)F)cc2c1C(=O)NC1CCNCC1(F)F (single isomer, unassigned) [165 - En 1] | ≤ 1000 | – | – |
| Cc1oc2cc(Cl)c(OCc3cccnc3C(F)(F)F)cc2c1C(=O)NC1CCNCC1(F)F (single isomer, unassigned) [165 - En 2] | 1000 to 20000 | – | – |
| COCCN1CCC(NC(=O)c2c(C)oc3ccc(OCc4scnc4C)cc23)C1=O (single isomer, unassigned) [169 - En 1] | ≤ 1000 | – | – |
| COCCN1CCC(NC(=O)c2c(C)oc3ccc(OCc4scnc4C)cc23)C1=O (single isomer, unassigned) [169 - En 2] | ≤ 1000 | – | – |
| Cc1ncsc1COc1ccc2oc(C)c(C(=O)NC3CC(=O)N(CCO)C3)c2c1 (single isomer, unassigned) [180 - En 1] | 1000 to 20000 | – | – |

| Structure (SMILES) | IC50 [1] [nM] | IC50 [2] [nM] | other results |
| --- | --- | --- | --- |
| Cc1oc2c(C)cc(OCc3cccnc3C(F)(F)F)cc2c1C(=O)NC1CCNCC1(F)F (single isomer, unassigned) [183 - En 1, N-(3,3-difluoropiperidin-4-yl)-2,7-dimethyl-5-((2-(trifluoromethyl)pyridin-3-yl)methoxy)benzofuran-3-carboxamide] | 1000 to 20000 | – | – |
| Cc1oc2c(C)cc(OCc3cccnc3C(F)(F)F)cc2c1C(=O)NC1CCNCC1(F)F (single isomer, unassigned) [183 - En 2, N-(3,3-difluoropiperidin-4-yl)-2,7-dimethyl-5-((2-(trifluoromethyl)pyridin-3-yl)methoxy)benzofuran-3-carboxamide] | ≥ 20000 | – | – |
| Cc1oc2c(Cl)cc(OCc3cccnc3C(F)(F)F)cc2c1C(=O)NC1CCNCC1(F)F (single isomer, unassigned) [184 - En 1] | 1000 to 20000 | – | – |
| Cc1oc2c(Cl)cc(OCc3cccnc3C(F)(F)F)cc2c1C(=O)NC1CCNCC1(F)F (single isomer, unassigned) [184 - En 2] | ≥ 20000 | – | – |
| Cc1oc2cc(C#N)c(OCc3cccnc3C(F)(F)F)cc2c1C(=O)NC1CCNCC1(F)F (single isomer, unassigned) [195 - En 2, 6-cyano-N-(3,3-difluoropiperidin-4-yl)-2-methyl-5-((2-(trifluoromethyl)pyridin-3-yl)methoxy)-benzofuran-3-carboxamide] | 1000 to 20000 | – | – |
| Cc1ncsc1COc1ccc2oc(C)c(C(=O)NC3CCN(CCO)C3=O)c2c1F (single isomer, unassigned) [326 - En 1] | – | ≤ 1000 | – |
| Cc1ncsc1COc1ccc2oc(C)c(C(=O)NC3CCN(CCO)C3=O)c2c1F (single isomer, unassigned) [326 - En 2] | – | 1000 to 20000 | – |
| Cc1oc2ccc(OCc3ccnn3CC(F)F)cc2c1C(=O)NC1(CO)CCNC1=O (single isomer, unassigned) [333 - En 1] | – | ≤ 1000 | – |
| CCOc1ncccc1COc1ccc2oc(C)c(C(=O)NC3CCN(CCO)C3=O)c2c1 (single isomer, unassigned) [348 - En 1] | – | ≤ 1000 | – |
| Cc1oc2ccc(OCc3nccn3C)cc2c1C(=O)NC1CCN(CCO)C1=O (single isomer, unassigned) [403 - En 1] | – | – | IC50 [3]: 1000 to 20000 nM |
| Cc1oc2ccc(OCc3nccn3C)cc2c1C(=O)NC1CCN(CCO)C1=O (single isomer, unassigned) [403 - En 2] | – | – | IC50 [3]: ≥ 20000 nM |
| Cc1oc2ccc(OCc3ccnn3C)cc2c1C(=O)NC1CCN(CCO)C1=O (single isomer, unassigned) [404 - En 1] | – | – | IC50 [3]: 1000 to 20000 nM |
| Cc1oc2ccc(OCc3ccccn3)cc2c1C(=O)NC1CCN(CCO)C1=O (single isomer, unassigned) [406 - En 1] | – | – | IC50 [3]: ≤ 1000 nM |
| Cc1oc2ccc(OCc3nccs3)cc2c1C(=O)NC1CCN(CCO)C1=O (single isomer, unassigned) [407 - En 1] | – | – | IC50 [3]: ≤ 1000 nM |
| Cc1oc2ccc(OCc3nccs3)cc2c1C(=O)NC1CCN(CCO)C1=O (single isomer, unassigned) [407 - En 2] | – | – | IC50 [3]: 1000 to 20000 nM |
| Cc1oc2ccc(OCc3cccnc3O)cc2c1C(=O)NC1CCN(CCO)C1=O (single isomer, unassigned) [408 - En 1] | – | – | IC50 [3]: ≤ 1000 nM |
| COc1ncccc1COc1ccc2oc(C)c(C(=O)NC3CCN(CCO)C3=O)c2c1 (single isomer, unassigned) [409 - En 1] | – | – | IC50 [3]: ≤ 1000 nM |
| Cc1ncsc1COc1ccc2oc(C)c(C(=O)NC3(C)CCN(CCO)C3=O)c2c1 (single isomer, unassigned) [410 - En 1] | – | – | IC50 [3]: ≤ 1000 nM |
| Cc1ncsc1COc1ccc2oc(C)c(C(=O)NC3(C)CCN(CCO)C3=O)c2c1 (single isomer, unassigned) [410 - En 2] | – | – | IC50 [3]: 1000 to 20000 nM |
